Data: patent US10280174B2, “Salt of fused pyrimidine compound and crystal thereof” (TAIHO PHARMACEUTICAL CO., LTD., priority 2015, dated 2019)

Legend:
[1] = target: recombinant human BTK protein (Homo sapiens (Human), UniProt Q06187); test: Measurement of BTK inhibitory activity (in vitro); type: biochemical; conditions: ATP 45 μM, FL-Peptide 2 substrate
Text: In a condition set for a method of measuring inhibitory activity in vitro of the compounds against BTK kinase activity, FL-Peptide 2 was used as a substrate, since it was described in a price list of LabChip (Registered trademark) series sample consumables of PerkinElmer Co., Ltd. that FL-Peptide 2 corresponded to a substrate peptide in a measurement of BTK kinase activity. The refined recombinant human BTK protein used in the test was purchased from Carna Biosciences, Inc.
With regard to the measurement of the inhibitory activity of the compounds, firstly, monofumarate of Compound A was diluted stepwise with dimethyl sulfoxide (DMSO). Subsequently, BTK protein, a substrate peptide (final concentration was 1 μM), magnesium chloride (final concentration was 10 mM), ATP (final concentration was 45 μM), and a DMSO solution of the test compounds (final concentration of DMSO was 5%) were added to a buffer solution for kinase reaction (20 mM HEPES (pH 7.5), 2 mM dithiotheitol, 0.01% Triton X-100), and after the solution was incubated for 40 minutes at 25° C., a kinase reaction was carried out. […] Finally, a substrate peptide that was not phosphorylated (S) and a phosphorylated peptide (P) were separated and detected by microchannel capillary electrophoresis with a LabChip EZ Reader II (PerkinElmer, Inc.). […]

[2] = Solid stability test (severe test), 60° C.; type: physicochemical
Procedure: (§1) Solid stability was measured under the following conditions, with respect to monofumarate of Compound A, hemitartrate of Compound A and monophosphate of Compound A which were obtained in the Examples and the Reference Examples, when they were stored for 2 weeks or 4 weeks at 60° C.
Storage condition: 60° C. (Sealed)
Point of measurement: 2 weeks and 4 weeks
(§2) Storage amount: About 30 mg
(§3) Storage container: Brown glass container
(§4) Method of preparing sample solution: Sample was dissolved in 50% acetonitrile such that a concentration of the sample would be 0.4 mg/mL.
In the Table, A and B refer to percentages of the total mass of analogous substance of less than 0.1%, and 0.1% or more and less than 0.5%, respectively. Incidentally, the value marked with * was measured at 2 weeks and the others were measured at 4 weeks.

[3] = Moisture absorption/desorption test; type: physicochemical; conditions: for Weight change ratio, Adsorption / Weight change ratio, Desorption: 25° C.
Procedure: Moisture absorption/desorption test was carried out with respect to Compound A, monofumarate of Compound A, hemifumarate of Compound A, hemitartrate of Compound A and monophosphate of Compound A, to research the presence or absence of the characteristic of channel hydrate.
In the moisture absorption/desorption test, measurements were carried out according to the following conditions.
A dedicated quartz holder was filled with about from 5 to 10 mg of sample, and a weight of the sample at each humidity was measured and recorded in a continuous manner under the following conditions. Handling of the devices including data processing was based on the method and the process indicated in each device.
Device: VTI SA+ (manufactured by TA Instruments Inc.)
Drying temperature: 60° C.
Temperature rising speed: 1° C./min.
Equilibrium in drying: It is confirmed that no reduction of 0.01 wt % occurs in 5 minutes, in a range not exceeding 300 minutes.
Temperature for measurement: 25° C.
Equilibrium in humidification: It is confirmed that no increase of 0.01 wt % occurs in 5 minutes, in a range not exceeding 120 minutes.
Relative humidity program: Raised by 5% RH from 5% RH to 95% RH, and lowered by 5% RH from 95% RH to 5% RH.

[4] = Blood concentration measurement test after oral administration; conditions: mice
Procedure: These administration solutions were orally administered to mice (Balb/cA) which had been bred under a feeding condition, at a dose of 10 mL per 1 kg body weight, with a sonde for oral administration. After the administration, the mice were returned to a cage for mice and conditions were checked. Inside the cage was provided with a condition where water and food were accessible ad libitum. After 0.25, 0.5, 1, 2, 4 and 6 hours from the administration, the mice were anesthetized with isoflurane, and 60 μL of blood was collected from orbital sinus with a capillary blood collection tube.
The collected blood was ice cooled, and blood plasma was separated by a centrifugal operation. The mice after the blood collection was returned to an animal breeding cage, and conditions after recovery from the anesthesia were checked. When the last blood collection was finished, the mice were euthanized by cervical dislocation, after a level check of isoflurane anesthesia.
AUC0-6 hr, Cmax and Tmax were calculated by linear-log trapezoid method with Phoenix WinNonlin (v6.3.0) which is a software manufactured by Pharsight Corporation, from a concentration of Compound A in each blood plasma measured by MRM method with LC-MS/MS.

[5] = Solid stability test (acceleration test), 40° C./75% RH; type: physicochemical; conditions: for total mass of analogous substance: 4 weeks
Procedure: as §1, with “monofumarate of Compound A, hemifumarate” for “monofumarate”, “40° C./75% RH (sealed condition and opened condition).” for “60° C.”
Storage condition: 40° C./75% RH (Sealed and Opened) (Opened refers to a condition where a glass container has the lid removed, and is covered with a KimWipe).
Points of measurement: 2 weeks and 4 weeks
as §2, §3, §4
Mass of analogous substance in the sample solution was measured by HPLC analysis. Handling of the devices including data processing was based on the method and the process indicated in each device. (Device: Shimadzu Corporation SIL-HTc/LC-20AB)
Column: InertSustein C18, 4.6×150 mm, 3 μm, manufactured by GL Sciences Inc.
MS detection: ESI positive
Column temperature: 40° C.
Column flow rate: 1.0 mL/min
Mobile phase: A; 10 mmol/L phosphate buffer (pH 6.0): Acetonitrile mixed solution (17:3), B; Acetonitrile
Amount of injection: 5 μL
In the Table, A, B and C refer to percentages of the total mass of analogous substance of less than 0.1%, 0.1% or more and less than 0.5%, and 0.5% or more, respectively. Incidentally, those marked with * were measured at 2 weeks' time and the others were measured at 4 weeks' time.

[6] = system: recombinant human EGFR protein / BTK; test: BTK inhibition selectivity compared with EGFR kinase inhibitory activity (in vitro); type: biochemical
Procedure: 1) Measurement of BTK Inhibitory Activity
2) Measurement of EGFR Inhibitory Activity
Therefore, a biotinated peptide (biotin-[…]) was produced by referring to the amino acid sequence of the peptide. The purified recombinant human EGFR protein used in the test was purchased from Carna Biosciences, Inc.
The reaction was terminated by adding EDTA thereto so as to obtain a final concentration of 24 mM. Subsequently, a detection liquid containing Eu-labeled anti-phosphotyrosine antibody PT66 (PerkinElmer, Inc.) and […] APC-SA (PerkinElmer, Inc.) was added thereto, and the system was left to stand for 2 hours or longer at room temperature. […] 3) BTK Inhibition Selectivity

[7] = 50 mg/kg in terms of Compound A, 0.5% HPMC suspension, plasma Compound A

recombinant human BTK protein, sequence (Q06187 whole entry): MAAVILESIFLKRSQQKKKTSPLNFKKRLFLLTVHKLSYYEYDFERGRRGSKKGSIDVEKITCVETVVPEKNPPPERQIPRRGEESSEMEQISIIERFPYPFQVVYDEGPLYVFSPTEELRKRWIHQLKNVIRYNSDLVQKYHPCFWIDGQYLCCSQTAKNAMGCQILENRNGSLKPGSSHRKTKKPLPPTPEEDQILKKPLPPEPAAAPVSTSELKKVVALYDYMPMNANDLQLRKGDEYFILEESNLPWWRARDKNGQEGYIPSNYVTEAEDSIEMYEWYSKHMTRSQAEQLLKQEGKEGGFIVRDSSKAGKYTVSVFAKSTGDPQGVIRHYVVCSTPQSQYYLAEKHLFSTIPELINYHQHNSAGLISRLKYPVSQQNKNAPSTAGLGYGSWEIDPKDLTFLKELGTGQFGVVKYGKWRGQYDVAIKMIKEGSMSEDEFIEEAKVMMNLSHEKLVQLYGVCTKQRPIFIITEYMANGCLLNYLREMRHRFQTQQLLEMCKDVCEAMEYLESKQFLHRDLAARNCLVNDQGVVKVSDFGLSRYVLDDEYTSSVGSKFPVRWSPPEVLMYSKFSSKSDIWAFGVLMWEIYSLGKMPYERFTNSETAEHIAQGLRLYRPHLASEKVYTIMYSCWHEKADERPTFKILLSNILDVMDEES

C=CC(=O)N1CCC[C@@H](n2nc(C(=O)Nc3nc4ccccc4o3)c3c(N)ncnc32)C1.O=C(O)/C=C/C(=O)O [monofumarate of Compound A, (R)-1-(1-acryloylpiperidin-3-yl)-4-amino-N-(benzo[d]oxazol-2-yl)-1H-pyrazolo[3,4-d]pyrimidine-3-carboxamide.monofumarate]
IC50 [1]: 1.19 nM
total mass of analogous substance ([2]; 60° C. (Sealed), 4 weeks): A (less than 0.1%)
solid stability (in words) ([2]; 60° C., compared to hemitartrate or monophosphate): excellent solid stabilities
Weight change ratio, Adsorption ([3]; relative humidity 5%): 0.01%
Weight change ratio, Desorption ([3]; relative humidity 5%): 0.05%
Weight change ratio, Adsorption ([3]; relative humidity 20%): 0.14%
Weight change ratio, Desorption ([3]; relative humidity 20%): 0.17%
Weight change ratio, Adsorption ([3]; relative humidity 40%): 0.30%
Weight change ratio, Desorption ([3]; relative humidity 40%): 0.33%
Weight change ratio, Adsorption ([3]; relative humidity 60%): 0.37%
Weight change ratio, Desorption ([3]; relative humidity 60%): 0.41%
Weight change ratio, Adsorption ([3]; relative humidity 80%): 0.45%
Weight change ratio, Desorption ([3]; relative humidity 80%): 0.49%
Weight change ratio, Adsorption ([3]; relative humidity 95%): 0.60%
Weight change ratio, Desorption ([3]; relative humidity 95%): 0.60%
mass change (increase) ([3]; relative humidity of 95%): less than 1%
Cmax relative to that of Compound A ([4]; 50 mg/kg): about two fold
AUC0-6 hr [4, 7]: 7.33 µM·h
Cmax [4, 7]: 7.63 µM
Tmax [4, 7]: 15 min
total mass of analogous substance ([5]; Opened): A (less than 0.1%)
total mass of analogous substance ([5]; Sealed): A (less than 0.1%)
solid stability (in words) ([5]; compared to hemitartrate or monophosphate): excellent solid stabilities
BTK inhibition selectivity against EGFR kinase relative to Comparative compound 1 ([6]; in vitro kinase): about 13 times
EGFR inhibitory activity IC50 value (nM)/BTK inhibitory activity IC50 value (nM) ([6]; selectivity ratio): 16.90
